Test results: ChEMBL document CHEMBL1125966, “Synthesis and pharmacological evaluation of combined thromboxane receptor antagonist/synthase inhibitors: pyridine-containing sulphonamido acids” (Bioorg Med Chem Lett, 1991)

Experiments:
[1] = target: T1, Thromboxane-A synthase (Homo sapiens, UniProt P24557); assay: In vitro inhibition of collagen-induced thromboxane A2 production in human whole blood; type: functional, tissue-based
T1 sequence (P24557 whole entry): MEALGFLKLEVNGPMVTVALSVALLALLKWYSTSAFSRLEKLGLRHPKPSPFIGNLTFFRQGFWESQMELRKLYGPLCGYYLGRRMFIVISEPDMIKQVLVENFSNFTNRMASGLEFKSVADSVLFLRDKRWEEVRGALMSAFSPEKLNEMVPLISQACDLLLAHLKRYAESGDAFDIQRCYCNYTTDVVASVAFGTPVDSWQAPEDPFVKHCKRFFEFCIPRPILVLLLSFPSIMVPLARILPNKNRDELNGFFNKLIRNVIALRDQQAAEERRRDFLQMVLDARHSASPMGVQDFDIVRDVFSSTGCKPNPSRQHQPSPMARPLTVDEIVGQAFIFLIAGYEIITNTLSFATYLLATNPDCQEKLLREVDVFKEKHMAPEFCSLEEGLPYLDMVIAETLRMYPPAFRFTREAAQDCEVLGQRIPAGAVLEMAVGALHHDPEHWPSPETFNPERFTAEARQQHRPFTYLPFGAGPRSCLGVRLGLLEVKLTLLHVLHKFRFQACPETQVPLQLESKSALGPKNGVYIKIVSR

[2] = target: T2, Thromboxane A2 receptor (Homo sapiens, UniProt P21731); assay: In vitro thromboxane A2 receptor antagonism through inhibition of U-46619 induced platelet aggregation in human whole blood; type: functional, tissue-based; conditions: read-out: pA2 (converted)
T2 sequence (P21731 whole entry): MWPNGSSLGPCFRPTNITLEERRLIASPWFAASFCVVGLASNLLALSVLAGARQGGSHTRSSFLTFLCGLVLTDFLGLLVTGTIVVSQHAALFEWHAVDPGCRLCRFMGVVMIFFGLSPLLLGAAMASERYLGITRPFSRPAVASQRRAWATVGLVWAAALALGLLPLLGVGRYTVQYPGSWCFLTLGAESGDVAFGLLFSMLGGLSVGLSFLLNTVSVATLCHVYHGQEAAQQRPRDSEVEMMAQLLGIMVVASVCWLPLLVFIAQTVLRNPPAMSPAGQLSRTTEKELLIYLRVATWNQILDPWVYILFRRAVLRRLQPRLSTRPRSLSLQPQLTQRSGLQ

[3] = target: T3, Thromboxane A2 receptor (Rattus norvegicus, UniProt P34978); assay: In vitro thromboxane A2 receptor antagonism through inhibition of U-46619 induced contraction of rat isolated thoracic aortic strip; type: functional; conditions: read-out: pA2 (converted)
T3 sequence (P34978 whole entry): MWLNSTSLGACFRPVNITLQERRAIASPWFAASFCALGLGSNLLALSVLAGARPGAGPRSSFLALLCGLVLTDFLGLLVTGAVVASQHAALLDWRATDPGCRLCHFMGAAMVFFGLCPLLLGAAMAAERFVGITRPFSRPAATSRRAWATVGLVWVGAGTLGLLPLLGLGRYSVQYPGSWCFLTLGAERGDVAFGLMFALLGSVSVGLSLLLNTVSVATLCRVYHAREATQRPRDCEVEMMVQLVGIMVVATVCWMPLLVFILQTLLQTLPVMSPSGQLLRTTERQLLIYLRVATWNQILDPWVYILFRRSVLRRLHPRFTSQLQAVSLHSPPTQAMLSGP

[4] = The half life period was determined; type: ADME
[5] = tested on: Canis familiaris; assay: Tested ex vivo for the percent inhibition of serum TXA2 production with collagen-induced platelet aggregation in anasthetised dog after administration at a dose of 10 ug/kg/min; type: functional; conditions: Canis lupus familiaris
[6] = tested on: Canis familiaris; assay: Tested ex vivo for the percent inhibition of serum TXA2 production with collagen-induced platelet aggregation in conscious dog at dosage of 10 mg/kg for 12 to 24 h; type: functional; conditions: Canis lupus familiaris

Row | SMILES | IC50 [1] | Kb [2] | Kb [3] | half-life [4] | inhibition in vivo at 10 µg/kg/min [5] | inhibition in vivo at 10 mg/kg [6]
1 | O=C(O)CCC/C=C(/c1cccnc1)c1cccc(CCNS(=O)(=O)c2ccccc2)c1 | 50.1 nM | 794 nM | 15.8 nM |  |  | 
2 | O=C(O)CO/N=C(/c1cccnc1)c1cccc(CCNS(=O)(=O)c2ccc(I)cc2)c1 | > 1000 nM | 200 nM | 1.58 nM |  |  | 
3 | O=C(O)CCC/C=C(/c1cccnc1)c1cccc(CCNS(=O)(=O)c2ccc(Cl)c(Cl)c2)c1 | 63.1 nM | 316 nM | 63.1 nM |  |  | 
4 | CC(C)(CNS(=O)(=O)c1ccc(I)cc1)c1cccc(/C(=C\CCCC(=O)O)c2cccnc2)c1 | 31.6 nM | 200 nM | 0.631 nM |  | > 98% | > 90%
5 | O=C(O)CCCO/N=C(/c1cccnc1)c1cccc(CCNS(=O)(=O)c2ccc(I)cc2)c1 | 200 nM | 1580 nM | 12.6 nM | < 30 min |  | 
6 | O=C(O)CCC/C=C(/c1cccnc1)c1cccc(CCNS(=O)(=O)c2ccc(I)cc2)c1 | 31.6 nM | 631 nM | 1 nM |  | > 98% | 

Further lines, with some results ahead:

Row | IC50 [1] | Kb [2] | Kb [3] | half-life [4] | SMILES | inhibition in vivo at 10 µg/kg/min [5] | inhibition in vivo at 10 mg/kg [6]
7 | 200 nM | 2000 nM | 200 nM | < 30 min | O=C(O)CCCCO/N=C(/c1cccnc1)c1cccc(CCNS(=O)(=O)c2ccc(I)cc2)c1 |  | 
8 | 200 nM | 316 nM | 2 nM | < 30 min | CC(C)(CNS(=O)(=O)c1ccc(I)cc1)c1cccc(/C(=N\OCCC(=O)O)c2cccnc2)c1 |  | 
9 | 501 nM | 100 nM | 0.631 nM | < 30 min | O=C(O)CCO/N=C(/c1cccnc1)c1cccc(CCNS(=O)(=O)c2ccc(I)cc2)c1 |  | 
10 | 20 nM | 794 nM | 10 nM |  | O=C(O)CCCC/C=C(/c1cccnc1)c1cccc(CCNS(=O)(=O)c2ccc(I)cc2)c1 |  | 
11 | 39.8 nM | 631 nM | 3.98 nM |  | O=C(O)CCC/C=C(/c1cccnc1)c1cccc(CCNS(=O)(=O)c2ccc([N+](=O)[O-])cc2)c1 |  | 
12 | 50.1 nM | 1000 nM | 200 nM |  | O=C(O)CCC/C=C(/c1cccnc1)c1cccc(CCNS(=O)(=O)c2ccccc2[N+](=O)[O-])c1 |  | 
13 | 79.4 nM | 7940 nM | 31.6 nM |  | O=C(O)CC/C=C(/c1cccnc1)c1cccc(CCNS(=O)(=O)c2ccccc2)c1 |  | 
14 | 31.6 nM | 794 nM | 25.1 nM |  | O=C(O)CCC/C=C(/c1cccnc1)c1cccc(CCNS(=O)(=O)c2ccc(F)cc2)c1 |  | 
15 | 50.1 nM | 1000 nM | 126 nM |  | O=C(O)CCC/C=C(/c1cccnc1)c1cccc(CCCNS(=O)(=O)c2ccccc2)c1 |  | 
16 |  |  |  | < 30 min | O=C(O)CCCCO/N=C(/c1cccnc1)c1cccc(C(F)(F)F)c1 [RIDOGREL] |  | 
